Data reported in patent US8785460B2, “Tricyclic compounds and use thereof” (Takeda Pharmaceutical Company Limited, priority 2008, dated 2014).
pIC50: −log10 of the molar value.

How the values were obtained:
human CRF1 receptor = molecular target: T1, human CRF1 receptor (Homo sapiens, UniProt P34998); experiment: Measurement of CRF Binding Inhibitory Rate (receptor binding experiment with 125I-CRF); conditions: human CRF1 receptor expressing CHO cellular membrane fraction, 50 pM 125I-CRF, room temperature 1.5 hr, 0.05 nM to 10 μM of compound; read-out: IC50 values (CRF binding inhibition)
T1 construct: expressed in transfected cells; host or cells: CHO cells (membrane fraction)
T1 sequence (P34998 24-415): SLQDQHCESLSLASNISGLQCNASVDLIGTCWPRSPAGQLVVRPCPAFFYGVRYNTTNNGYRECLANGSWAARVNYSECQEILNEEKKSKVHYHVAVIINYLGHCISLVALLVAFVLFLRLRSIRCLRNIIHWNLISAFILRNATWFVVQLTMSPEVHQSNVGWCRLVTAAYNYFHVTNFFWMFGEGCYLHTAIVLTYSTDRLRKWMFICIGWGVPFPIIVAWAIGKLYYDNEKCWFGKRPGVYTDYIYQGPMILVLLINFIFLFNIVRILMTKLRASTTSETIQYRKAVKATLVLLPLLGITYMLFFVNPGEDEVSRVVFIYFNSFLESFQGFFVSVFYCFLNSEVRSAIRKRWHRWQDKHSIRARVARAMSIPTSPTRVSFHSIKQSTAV

Row | Structure (SMILES) | pIC50 (human CRF1 receptor) | melting point [°C]
1 | CCC(CC)c1ccc(Cl)c2nc3n(c12)CCCC(=O)N3c1ccc(Cl)cc1Cl [Example 22, 10-Chloro-1-(2,4-dichlorophenyl)-7-(1-ethylpropyl)-4,5-dihydro-1H-[1,3]diazepino[1,2-a]benzimidazol-2(3H)-one] | > 6.00 | 135 to 137
2 | CS(=O)(=O)NC(c1ccc(Cl)c2nc3n(c12)CCCN3c1c(Cl)cc(Cl)cc1Cl)C(F)(F)F (stereo not drawn) [Example 416, N-{1-[9-Chloro-1-(2,4,6-trichlorophenyl)-1,2,3,4-tetrahydropyrimido[1,2-a]benzimidazol-6-yl]-2,2,2-trifluoroethyl}methanesulfonamide] | > 6.00 | 290 to 291
3 | CCC(CC)c1ccc(Cl)c2nc3n(c12)CCCCN3c1ncc(C#N)cc1C [Example 339, 6-[10-Chloro-7-(1-ethylpropyl)-2,3,4,5-tetrahydro-1H-[1,3]diazepino[1,2-a]benzimidazol-1-yl]-5-methylpyridine-3-carbonitrile] | > 6.00 | 213
4 | CCC(NC(=O)CC(F)(F)F)c1ccc(Cl)c2nc3n(c12)CCCN3c1ccc(Cl)cc1Cl (stereo not drawn) [Example 447, N-{1-[9-Chloro-1-(2,4-dichlorophenyl)-1,2,3,4-tetrahydropyrimido[1,2-a]benzimidazol-6-yl]propyl}-3,3,3-trifluoropropanamide] | > 6.00 | 285 to 290
5 | CCC(CCO)c1ccc(Cl)c2nc3n(c12)CCCN3c1ccc(Cl)cc1Cl (stereo not drawn) [Example 450, 3-[9-Chloro-1-(2,4-dichlorophenyl)-1,2,3,4-tetrahydropyrimido[1,2-a]benzimidazol-6-yl]pentan-1-ol] | > 6.00 | 183 to 185
6 | CCC(CC)c1ccc(Cl)c2nc3n(c12)CCCCN3c1c(C)cc(Cl)cc1OC [Example 56] | > 6.00 | 196 to 198
7 | COCC(=O)OC(c1ccc(Cl)c2nc3n(c12)CCCN3c1ccc(Cl)cc1Cl)C1CC1 (stereo not drawn) [Example 479] | > 6.00 | 159 to 161
8 | CCN(CC)c1cccc2nc3n(c12)CCCCCN3c1ccc(Cl)cc1Cl [Example 102, 1-(2,4-Dichlorophenyl)-N,N-diethyl-1,2,3,4,5,6-hexahydro[1,3]diazocino[1,2-a]benzimidazol-8-amine] | > 6.00 | 120 to 121
9 | CCC(CC)c1ccc(Cl)c2nc3n(c12)CCCCN3c1cccc2c1OC(F)(F)O2 [Example 54, 10-Chloro-1-(2,2-difluoro-1,3-benzodioxol-4-yl)-7-(1-ethylpropyl)-2,3,4,5-tetrahydro-1H-[1,3]diazepino[1,2-a]benzimidazole] | > 6.00 | 156 to 158
